This test relates to M. mycetomatis genome strain MM55. Kind of test: CLSI M38-A2 based in vitro susceptibility screening (XTT or resazurin), growth at fixed concentration. It is filed as cell-based, Madurella mycetomatis. Particulars: Madurella mycetomatis; for Percent fungal survival at 100 µM: read-out: Percentage survival at 100um, 100 uM A (second replicate column). (Tetrazolium assays rely on reduction of a dye to a coloured formazan, in cell work by metabolically active cells.)

The mark [1] stands for this setting: mean of three replicates, read-out: Percentage survival at 25um, 25 uM mean.
Setting [2] is: replicate A, read-out: Percentage survival at 25um, 25 um A.
[3] abbreviates: replicate B, read-out: Percentage survival at 25um, 25 uM B.
Setting [4] is: replicate C, read-out: Percentage survival at 25um, 25 uM C.
[5] abbreviates: first replicate column, read-out: Percentage survival at 100um, 100 uM A.
Where [6] appears, read: mean of three replicates, read-out: Percentage survival at 100um, 100 uM mean.
Setting [7] is: second replicate column, read-out: Percentage survival at 100um, 100 uM A.
[8] abbreviates: third replicate column, read-out: Percentage survival at 100um, 100 uM A.
Setting [9] is: mean of three, M. mycetomatis MM55, read-out: Percentage survival at 25um, 25 uM mean.
[10] abbreviates: replicate A, M. mycetomatis MM55, read-out: Percentage survival at 25um, 25 um A.
Setting [11] is: replicate B, M. mycetomatis MM55, read-out: Percentage survival at 25um, 25 uM B.
The mark [12] stands for this setting: replicate C, M. mycetomatis MM55, read-out: Percentage survival at 25um, 25 uM C.
Setting [13] is: mean of three, M. mycetomatis MM55, read-out: Percentage survival at 100um, 100 uM mean.
[14] abbreviates: replicate 1, M. mycetomatis MM55, read-out: Percentage survival at 100um, 100 uM A (first replicate column).
Setting [15] is: replicate 2, M. mycetomatis MM55.
The mark [16] stands for this setting: replicate 3, M. mycetomatis MM55, read-out: Percentage survival at 100um, 100 uM A (third replicate column).
[17] abbreviates: replicate 1, read-out: Percentage survival at 100um, 100 uM A (first replicate column).
Setting [18] is: replicate 3, read-out: Percentage survival at 100um, 100 uM A (third replicate column).
Setting [19] is: mean of replicates, MM55, read-out: Percentage survival at 25um, 25 uM mean.
Setting [20] is: replicate A, MM55, read-out: Percentage survival at 25um, 25 um A.
Where [21] appears, read: replicate B, MM55, read-out: Percentage survival at 25um, 25 uM B.
The mark [22] stands for this setting: replicate C, MM55, read-out: Percentage survival at 25um, 25 uM C.
The mark [23] stands for this setting: mean of replicates, MM55, read-out: Percentage survival at 100um, 100 uM mean.
[24] abbreviates: replicate 1, MM55, read-out: Percentage survival at 100um, 100 uM A.
Setting [25] is: replicate 2, MM55, read-out: Percentage survival at 100um, 100 uM A.
Where [26] appears, read: replicate 3, MM55, read-out: Percentage survival at 100um, 100 uM A.
[27] abbreviates: mean, read-out: Percentage survival at 25um, 25 uM mean.
Where [28] appears, read: mean, read-out: Percentage survival at 100um, 100 uM mean.
Setting [29] is: replicate (first column), read-out: Percentage survival at 100um, 100 uM A.
[30] abbreviates: replicate (second column), read-out: Percentage survival at 100um, 100 uM A.
Setting [31] is: replicate (third column), read-out: Percentage survival at 100um, 100 uM A.

Drawing on article PMC8815882, “Screening the pandemic response box identified benzimidazole carbamates, Olorofim and ravuconazole as promising drug candidates for the treatment of eumycetoma” (PLoS Neglected Tropical Diseases, 2022), this text covers activity and Percent fungal survival for 16 compounds.

Where two headings read alike, the source gives them in different places.

Take `COc1ccccc1CN[C@H]1C2CCN(CC2)[C@H]1C(c1ccccc1)c1ccccc1` [MMV690480]: the activity at 25 µM by setting is: under setting [1], 83.2%; under setting [2], 61.4%; under setting [3], 107%; under setting [4], 81.2%. The activity at 100 µM reads like this: under setting [5], -1.66%; under setting [6], 27.7%; under setting [7], 2.79%; under setting [8], 82%.
Take `CC(C)(C)c1cc(CCC(=O)N2CCC2)cc(C(C)(C)C)c1O` [MMV1229204]: the activity at 25 µM by setting is: under setting [9], 77.7%; under setting [10], 91.6%; under setting [11], 84.3%; under setting [12], 57%. For the same compound, the activity at 100 µM under setting [13] worked out at 62.1%, the activity at 100 µM under setting [14] came out at 57.1% and the activity at 100 µM under setting [16] was 65.1%. Moreover, the Percent fungal survival at 100 µM under setting [15] is 64%.
For the compound `NCc1ccc(S(N)(=O)=O)cc1` [MMV002665], the activity at 25 µM was 85.4% under setting [1], 82.7% under setting [2], 87.5% under setting [3] and 86.1% under setting [4]. The activity at 100 µM under setting [6] amounted to 90.8%, the activity at 100 µM under setting [17] was found to be 98.4% and the activity at 100 µM under setting [18] was found to be 95.8%. Also, where the note is “replicate 2”, the Percent fungal survival at 100 µM turned out to be 78.3%.
As to `CC(C)(C)NC(=O)[C@@H]1CN(Cc2cnc3occc3c2)CCN1C[C@@H](O)C[C@@H](Cc1ccccc1)C(=O)N[C@H]1c2ccccc2C[C@H]1O` [MMV1782353], the activity at 25 µM under setting [19] was 97.1%, the activity at 25 µM under setting [20] came out at 103%, the activity at 25 µM under setting [21] was determined as 101% and the activity at 25 µM under setting [22] was determined as 87.6%. Besides, the activity at 100 µM came to 86.3% under setting [23], 97% under setting [24], 84.7% under setting [25] and 77.2% under setting [26].
Take `Cc1nc(-c2ccc(C3N(C)c4ccc(F)cc4C(=O)N3c3ccccc3)s2)cs1` (centres unmarked) [MMV1582492]: the activity at 25 µM came out at 71% under setting [9], 80% under setting [10], 73.5% under setting [11] and 59.4% under setting [12]. Moreover, the activity at 100 µM by setting is: under setting [13], 79.4%; under setting [14], 66.4%; under setting [16], 70.8%. For the same compound, under setting [15], the Percent fungal survival at 100 µM stood at 101%.
`NC(=O)c1cnc2ccc(S(=O)(=O)c3ccccc3)cc2c1Nc1ccc(O)cc1` [MMV1580848]: the activity at 25 µM was found to be 78.8% under setting [9], 86.9% under setting [10], 78.3% under setting [11] and 71.3% under setting [12]. Moreover, the activity at 100 µM turned out to be 83.2% under setting [13], 89.3% under setting [14] and 74.3% under setting [16]. Besides, the Percent fungal survival at 100 µM under setting [15] was determined as 86.1%.
As to `Cn1c2ccccc2c(=O)c2c(O)cccc21` [MMV1580500], the activity at 25 µM reads like this: under setting [19], 65%; under setting [20], 63.1%; under setting [21], 67.8%; under setting [22], 64.2%. Besides, the activity at 100 µM is, setting by setting: under setting [23], 58.6%; under setting [24], 66.8%; under setting [25], 57.2%; under setting [26], 51.8%.
For `CC(C)(C)c1ccc(C(Cn2cccc(C(F)(F)F)c2=O)NC2Cc3ccccc3C2)cc1` (centres unmarked) [MMV1634393], the activity at 25 µM runs as follows: under setting [19], 62.5%; under setting [20], 51.3%; under setting [21], 64.6%; under setting [22], 71.7%. Further, the activity at 100 µM runs as follows: under setting [23], 66.7%; under setting [24], 63.7%; under setting [25], 74.2%; under setting [26], 62.2%.
On to `COc1cc(C2C3=C(CC(C)(C)CC3=O)Nc3ccccc3N2C(C)=O)ccc1OCc1ccccc1` (centres unmarked) [MMV1634557], for which the activity at 25 µM under setting [27] came to 82.1%, the activity at 25 µM under setting [2] stood at 90.5%, the activity at 25 µM under setting [3] is 79.1% and the activity at 25 µM under setting [4] was 76.6%. The activity at 100 µM is 85.5% under setting [28], 92.5% under setting [29], 79.5% under setting [30] and 84.5% under setting [31].
As for `C[C@H]1CC[C@@]2(O)C(C)(C)[C@@H]3CC[C@@]2(C)[C@H]1C3` [MMV1578556], the activity at 25 µM under setting [9] amounted to 75.9%, the activity at 25 µM under setting [10] worked out at 69.5%, the activity at 25 µM under setting [11] came to 83.8% and the activity at 25 µM under setting [12] worked out at 74.3%. Besides, the activity at 100 µM under setting [13] is 84.9%, the activity at 100 µM under setting [14] was 79.8% and the activity at 100 µM under setting [16] was found to be 82.4%. For the same compound, the Percent fungal survival at 100 µM under setting [15] is 92.6%.
As for `O=S(=O)(NCB(O)O)c1ccc(-c2nnn[nH]2)cc1C(F)(F)F` [MMV1782411], the activity at 25 µM reads like this: under setting [1], 83.9%; under setting [2], 61.4%; under setting [3], 112%; under setting [4], 78.7%. Moreover, the activity at 100 µM runs as follows: under setting [6], 88.5%; under setting [17], 91.5%; under setting [18], 90.2%. The Percent fungal survival at 100 µM (replicate 2) amounted to 83.7%.
In the case of `C=CCc1cc(Cc2cnc(N)nc2N)cc(OC)c1O` [MMV1580849], the activity at 25 µM (mean of replicates, read-out: Percentage survival at 25um, 25 uM mean) stood at 96.4%; the activity at 25 µM under setting [2] was found to be 100%; the activity at 25 µM under setting [3] is 95.7%; the activity at 25 µM under setting [4] worked out at 93.6%. Also, the activity at 100 µM turned out to be 91.3% (mean of replicates, read-out: Percentage survival at 100um, 100 uM mean); 101% (replicate 1, read-out: Percentage survival at 100um, 100 uM A); 86.2% (replicate 2, read-out: Percentage survival at 100um, 100 uM A); 86.7% (replicate 3, read-out: Percentage survival at 100um, 100 uM A).
With `NC1C2CC3CC(C2)CC1C3` (centres unmarked) [MMV180402], the activity at 25 µM came out at 83.1% under setting [1], 84.6% under setting [2], 88.7% under setting [3] and 76% under setting [4]. The activity at 100 µM runs as follows: under setting [5], 78.9%; under setting [6], 78%; under setting [7], 67.8%; under setting [8], 87.1%.
On to `O=C(CP(=O)(O)O)NCCc1cccc(Oc2ccccc2)c1` [MMV1579787], for which the activity at 25 µM under setting [27] was found to be 79.8%, the activity at 25 µM under setting [2] was found to be 84.6%, the activity at 25 µM under setting [3] amounted to 81.7% and the activity at 25 µM under setting [4] turned out to be 73.2%. Besides, the activity at 100 µM under setting [28] was determined as 46.3%, the activity at 100 µM under setting [29] was -0.0188%, the activity at 100 µM under setting [30] is 65.7% and the activity at 100 µM under setting [31] is 73.3%.
On to `Nc1ccc(-c2nc3cc(C(F)(F)F)ccc3n2C23CC4CC(CC(C4)C2)C3)cc1` [MMV1634385], for which the activity at 25 µM is 82.4% under setting [19], 108% under setting [20], 85.4% under setting [21] and 54% under setting [22]. Moreover, the activity at 100 µM is 57.5% under setting [23], 61.2% under setting [24], 52.2% under setting [25] and 59.1% under setting [26].
Consider `Cc1cc(Nc2ccc(F)cc2)nc(SCc2nc3ccccc3[nH]2)n1` [MMV1582498], for which the activity at 25 µM under setting [27] was found to be 92.9%, the activity at 25 µM under setting [2] worked out at 99.7%, the activity at 25 µM under setting [3] was found to be 99% and the activity at 25 µM under setting [4] was found to be 80.1%. Moreover, the activity at 100 µM was found to be 45% under setting [28], 67.6% under setting [29], 17.6% under setting [30] and 49.8% under setting [31].
